Experimental data as given in article PMC7808747, “Design, synthesis, and in vitro evaluation of BP-1-102 analogs with modified hydrophobic fragments for STAT3 inhibition” (Journal of Enzyme Inhibition and Medicinal Chemistry, 2021).

Experiments:
MDA-MB-231 cells = assay: Annexin V / propidium iodide FACS, MDA-MB-231; format: cell-based, human; conditions: MDA-MB-231, 0, 5, 10, 20, 50 µM, 24 h
Description: (§6) Cells were harvested by centrifugation, resuspended in cold PBS and again centrifuged. Cell pellets were then resuspended in Annexin V Binding Buffer (ApoFlowEx FITC Kit, ED7044, Exbio, Vestec, Czech Republic), annexin V-APC and PI were added to the cell pellet and mixed. Cells were incubated in the dark at room temperature for 15 min. After the incubation, cells were centrifuged, resuspended in Annexin V Binding Buffer and analysed by flow cytometry. Five thousand cells per sample were measured by analysing annexin V and PI using a BD FACSVerse™ flow cytometer (BD Biosciences, Franklin Lakes, NJ). Data were analysed using FlowJo 10 software (FlowJo LLC, Ashland, OR), and the percentage of viable (annexin V-negative/PI-negative) cells relative to control was plotted.

[1] = system: mouse prostate TRAMP-C2 cancer cell line; assay: MTT cytotoxicity assay, TRAMP-C2; format: cell-based; conditions: MTT assay; for cytotoxic effect in TRAMP-C2 (in words): 0–50 µM, 24 h
Description: (§1) Cells were seeded at the density of 2000 cells per well (96-well F microplates; Nunc, Roskilde, Denmark). The following day, the tested compounds were added. In the next 24 h, MTT (3-(4,5-dimethylthiazol-2-yl)-2,5-diphenyltetrazolium bromide) was added. After 6 h, DMF (dimethylformamide) was added, and after additional 24 h, absorbance was measured at 560 nm by a microplate reader.

[2] = system: mouse lung TC-1 cancer cell line; assay: MTT cytotoxicity assay, TC-1; format: cell-based; conditions: for cytotoxic effect in TC-1 (in words): 0–50 µM, 24 h
Description: as §1

[3] = system: human breast cancer MDA-MB-231 cell line; assay: Resazurin cytotoxicity assay, MDA-MB-231; format: cell-based; conditions: resazurin assay; for cytotoxic effect in MDA-MB-231 (in words): 0, 5, 10, 20, 50 µM
Description: (§2) The cells were treated with the compounds at concentrations 0, 5, 10, 20, and 50 µM for 24 h, and the cytotoxicity was estimated by the resazurin assay.
To estimate IC50 of 6 and 14, MDA-MB-231 cells were treated with 1 (0, 2, 5, 10, 15, 20, 25, 30, 40, and 50 µM), 6 (0, 5, 10, 20, 25, 30, 40, 50, 70, and 100 µM), and 14 (0, 20, 40, 50, 60, 70, 80, 100, 150, and 200 µM) for 24 h.
(§3) The resazurin reduction assay[34] was performed as described previously. Briefly, cells were seeded onto a 96-well plate (2000 cells per well) in hexaplicate and the following day treated with the tested compounds (dissolved in DMSO as 50 mM stock) in a concentration range as indicated. After 24 h, 200 μl of culture medium of each well was exchanged for 100 μl of resazurin (stock 30 mg/ml; Sigma, St. Louis, MO) diluted 10 times in the culture medium, and the cells were incubated at 37 °C for 1–3 h. Reading of fluorescence was done using an Envision reader (PerkinElmer, Waltham, MA). Absolute values of fluorescence were related to the values of control/untreated cells. To estimate the cytotoxic concentration (half maximal inhibitory concentration, IC50), log-scale data were processed in GraphPad Prism software (La Jolla, CA) using nonlinear fit curve.

cervix carcinoma HeLa = assay: Resazurin cytotoxicity assay, HeLa; conditions: 0–50 µM, 24 h
Description: (§4) Furthermore, the cytotoxicity of compound 6 was compared to BP-1-102 (1) in human glioblastoma cell lines U-87 and T98 in concentration range 0–80 µM for 24 h using the crystal violet assay.
as §3

osteosarcoma U2-OS = assay: Resazurin cytotoxicity assay, U2-OS; conditions: 0–50 µM, 24 h
Description: as §4, §3

TC-1 cells = assay: Annexin V / propidium iodide FACS, TC-1; conditions: TC-1, 24 h
Description: as §6

[4] = system: STAT3 Y705 phosphorylation (pY705); assay: STAT3 pY705 immunoblotting, MDA-MB-231; format: cell-based, human; conditions: MDA-MB-231, micromolar concentration range, 4 h
Description: The cells were exposed to BP-1-102 (1), compounds 6 and 14 in a micromolar concentration range for 4 h, and then the levels of STAT3 pY705 and total STAT3 were probed by immunoblotting with specific antibodies. […] It can be concluded that both novel compounds 6 and 14 manifested inhibitory effects on receptor-mediated phosphorylation of Y705 of STAT3 in both human and mouse cell lines.
Cells were washed three times with PBS, harvested into 95 °C-heated Laemmli SDS sample lysis buffer (2% SDS, 50 mM Tris–Cl, 10% glycerol in double distilled H2O) and sonicated at 3 μm amplitude for 3 × 10 or 3 × 30 s with 10 or 30 s cooling intervals in a Soniprep 150 (MSE, London, UK) or Diagenode Bioruptor 300 (Diagenode, Liege, Belgium) for human and murine cell lines, respectively. Concentration of proteins was estimated by the Pierce^TM BCA Protein Assay (Thermo Scientific, Waltham, MA). DTT (100 mM) and 0.01% bromophenol blue were added to the lysates before separation by SDS-PAGE (10% gels were used). Equal protein amounts (40 or 35 μg for human or murine cell lines, respectively) were loaded into each well. Proteins were electrotransferred onto a nitrocellulose membrane (Amersham^TM Protran^TM 0.45 µm NC, GE Healthcare, Chalfont St Giles, UK) using wet transfer and detected by specific antibodies (at 4 °C overnight) combined with HRP-conjugated secondary antibodies. Peroxidase activity was detected by Amersham^TM ECL Western Blotting Detection Reagents (GE Healthcare, Chalfont St Giles, UK). GAPDH was used as a loading control.

[5] = system: human breast adenocarcinoma MCF-7; assay: Resazurin cytotoxicity assay, MCF-7
Description: as §4, §3

[6] = system: prostate carcinoma DU-145; assay: Resazurin cytotoxicity assay, DU-145
Description: as §4, §3

human glioblastoma U373 = assay: Crystal violet assay, U373; conditions: 0–50 µM, 24 h
Description: as §2
(§5) To determine cell viability by crystal violet assay, cells were seeded in 96-well plates at densities of 3000 (RPE-1), 5000 (U373 and T98-G), and 8000 (U-87 MG) cells per well. The next day the cells were treated with the tested compounds in triplicate in a concentration range as indicated. After 24 h, the cells in each well were washed twice with 150 µl PBS and then stained in 30 µl 0.5% w/v crystal violet in 20% methanol for 15 min. Plates were washed three times with double distilled H2O and left to dry overnight. Crystal violet was solubilised with 75 µl 0.2% Triton X-100 (Sigma, St. Louis, MO) in PBS for 15 min. Absorbance of crystal violet was measured at 595 nm using a microplate reader (Multiskan EX, Thermo Electron Corporation, Waltham, MA). Absorbance of the treated samples was expressed as a percentage of absorbance of untreated cells.

RPE-1 = assay: Resazurin assay, RPE-1 (Table 2); format: cell-based; conditions: Homo sapiens, resazurin assay (footnote a), read-out: IC50±SD RPE-1
Description: The resazurin reduction assay[34] was performed as described previously[38]. Briefly, cells were seeded onto a 96-well plate (2000 cells per well) in hexaplicate and the following day treated with the tested compounds (dissolved in DMSO as 50 mM stock) in a concentration range as indicated. After 24 h, 200 μl of culture medium of each well was exchanged for 100 μl of resazurin (stock 30 mg/ml; Sigma, St. Louis, MO) diluted 10 times in the culture medium, and the cells were incubated at 37 °C for 1–3 h. Reading of fluorescence was done using an Envision reader (PerkinElmer, Waltham, MA). Absolute values of fluorescence were related to the values of control/untreated cells. To estimate the cytotoxic concentration (half maximal inhibitory concentration, IC50), log-scale data were processed in GraphPad Prism software (La Jolla, CA) using nonlinear fit curve.

TRAMP-C2 cells = assay: Annexin V / propidium iodide FACS, TRAMP-C2; format: cell-based, mouse; conditions: TRAMP-C2, 24 h
Description: as §6

[7] = system: human immortalised retinal pigment epithelium RPE-1; assay: Crystal violet assay, RPE-1; conditions: 0–50 µM, 24 h
Description: as §2, §5

[8] = system: human breast cancer MDA-MB-231; set-up: method as in PMID 20067773; conditions: previously published; cited from earlier work
[9] = system: pancreatic cancer Panc-1 cell lines; set-up: method as in PMID 20067773; conditions: previously published; cited from earlier work

SMILES: CN(CC(=O)N(Cc1ccc(C(F)(F)F)cc1)c1ccc(C(=O)O)c(O)c1)S(=O)(=O)c1c(F)c(F)c(F)c(F)c1F [Compound 14, 4-(N-(4-Trifluoromethylbenzyl)-2-(2,3,4,5,6-pentafluoro-N-methylphenylsulfonamido)acetamido)-2-hydroxybenzoic acid]
- cell death induction (annexin V/PI, FACS) (MDA-MB-231 cells): cell death induction was confirmed
- cytotoxic effect in TRAMP-C2 (in words) [1]: cytotoxic activity comparable to BP-1-102 (1)
- IC50 ([1]; Mus musculus, read-out: IC50±SD TRAMP-C2): 23.1 ± 10.5 µM
- cytotoxic effect in TC-1 (in words) [2]: cytotoxic activity comparable to BP-1-102 (1)
- IC50 ([2]; Mus musculus, read-out: IC50±SD TC-1): 25.3 ± 6.6 µM
- IC50 ([3]; Homo sapiens, MDA-MB-231, 24 h, 24 h, read-out: IC50±SD MDA-MB-231): 39.3 ± 6.3 µM
- concentration from which the compound was cytotoxic ([3]; MDA-MB-231, 24 h): 20 µM
- cytotoxic effect in HeLa (in words) (cervix carcinoma HeLa): comparable to BP-1-102 (1) and compound 6 at 50 µM, it was markedly decreased at lower concentrations
- cytotoxic effect in U2-OS (in words) (osteosarcoma U2-OS): comparable to BP-1-102 (1) and compound 6 at 50 µM, it was markedly decreased at lower concentrations
- cytotoxicity by annexin V/PI staining and FACS (TC-1 cells): confirmed
- inhibition of constitutive STAT3 Y705 phosphorylation [4]: inhibited constitutive STAT3 phosphorylation
- cytotoxic effect in MCF-7 (in words) ([5]; 0–50 µM, 24 h, resazurin assay): comparable to BP-1-102 (1) and compound 6 at 50 µM, it was markedly decreased at lower concentrations
- IC50 ([5]; Homo sapiens, MCF7, read-out: IC50±SD MCF-7): 47.3 ± 3.8 µM
- cytotoxic effect in DU-145 (in words) ([6]; 0–50 µM, 24 h, resazurin assay): weaker response
- IC50 ([6]; Homo sapiens, DU-145, read-out: IC50±SD DU-145): 65.3 ± 7.8 µM
- cytotoxic activity in U373 (in words) (human glioblastoma U373): concentration-dependent cytotoxic activity
- IC50 (RPE-1): 39.7 ± 7.4 µM
- cytotoxicity by annexin V/PI staining and FACS (TRAMP-C2 cells): confirmed
- cytotoxic activity in RPE-1 (in words) [7]: concentration-dependent cytotoxic activity

SMILES: Cc1ccc(S(=O)(=O)N(C)CC(=O)N(Cc2ccc(C3CCCCC3)cc2)c2ccc(C(=O)O)c(O)c2)cc1 [S3I-201.1066 (2), 4-(N-(4-Cyclohexylbenzyl)-2-(N-methyl-N-(p-toluenesulfonyl))acetamido)-2-hydroxybenzoic acid, reference compound]
- cytotoxic effect in TRAMP-C2 (in words) [1]: did not demonstrate any cytotoxic effect
- cytotoxic effect in TC-1 (in words) [2]: did not demonstrate any cytotoxic effect
- cytotoxic effect in MDA-MB-231 (in words) ([3]; 24 h): did not show any observable cytotoxic effect
- cytotoxic effect in MDA-MB-231 (in words) ([3]; 24 h, listed as 2): complete loss of cytotoxic activity
- effect on viability of MDA-MB-231 [8]: reported to affect viability
- effect on viability of Panc-1 [9]: reported to affect viability
